Laboratory results as given in ChEMBL document CHEMBL3046651, “Cytotoxicity and QSAR study of (thio)ureas derived from phenylalkylamines and pyridylalkylamines” (Med Chem Res, 2013).

Tests used:
Format in all cases: functional, cell-based
A549 = test: Cytotoxicity against Homo sapiens (human) A549 cells assessed as inhibition of cell growth after 3 days by MTT assay; details: A549, 72 h
HepG2 = test: Cytotoxicity against Homo sapiens (human) HepG2 cells assessed as inhibition of cell growth after 3 days by MTT assay; details: HepG2, 72 h
MOLT-3 = test: Cytotoxicity against Homo sapiens (human) MOLT3 cells assessed as inhibition of cell growth after 3 days by crystal violet staining; details: MOLT-3, 72 h
[1] = Cytotoxicity against Homo sapiens (human) HuCCa1 cells assessed as inhibition of cell growth after 3 days by crystal violet staining; details: HuCC-A1, 72 h

Row | Compound | IC50 (A549) [µM] | IC50 (HepG2) [µM] | IC50 (MOLT-3) [µM] | IC50 [1] [µM]
1 | O=[N+]([O-])c1ccc(NC(S)=NCCc2ccccc2)cc1 | 80.3 | 25.4 | 12.5 | 19.1
2 | O=C(NCCc1ccccc1)Nc1ccc(Cl)cc1 | > 182 | 37.6 | > 182 | > 182
3 | S=C(NCc1ccccn1)Nc1ccc(Cl)cc1 | > 180 | > 180 | 119 | > 180
4 | S=C(NCCc1ccccc1)Nc1ccc(Cl)cc1 | 75.7 | 44.7 | 25.1 | 84.2
5 | S=C(NCCc1ccccn1)Nc1ccc(Cl)cc1 | > 171 | > 171 | 120 | > 171
6 | O=C(NCc1ccccn1)Nc1ccc(Cl)cc1 | > 191 | > 191 | 186 | > 191
7 | COc1ccc(CCNC(=S)Nc2ccc([N+](=O)[O-])cc2)cc1OC | 65 | 42.4 | 21.7 | > 138
8 | COc1ccc(CCNC(=S)Nc2ccc(Cl)cc2)cc1OC | 129 | 60.8 | 38.9 | 139
9 | COc1ccc(CCNC(=O)Nc2ccc(Cl)cc2)cc1OC | > 149 | 52.8 | 50.7 | > 149
10 | O=[N+]([O-])c1ccc(NC(=S)NCCc2ccccn2)cc1 | > 165 | 152 | 78.7 | > 165
11 | O=C(NCCc1ccccn1)Nc1ccc(Cl)cc1 | > 181 | 22.7 | 66.9 | > 181
12 | O=[N+]([O-])c1ccc(NC(=S)NCc2ccccn2)cc1 | > 173 | 34.7 | 54.1 | > 173
13 | O=[N+]([O-])c1ccc(NC(=S)NCc2cccc(CNC(=S)Nc3ccc([N+](=O)[O-])cc3)c2)cc1 | 88.6 | 7.51 | 3.36 | 34.2
14 | S=C(NCc1cccc(CNC(=S)Nc2ccc(Cl)cc2)c1)Nc1ccc(Cl)cc1 | > 105 | 7.63 | 1.62 | 52.6
15 | COc1cccc2c1C(=O)c1c(O)c3c(c(O)c1C2=O)C[C@@](O)(C(=O)CO)C[C@@H]3O[C@H]1C[C@H](N)[C@H](O)[C@H](C)O1 [DOXORUBICIN] | 0.7 | 0.42 | – | 0.64
